Source: ChEMBL document CHEMBL5137058, “Therapeutic Strategies to Target the Androgen Receptor” (J Med Chem, 2022)
pEC50, pIC50, pKi: −log10 of the molar value.

Tests used:
Androgen receptor [1] = target: T1, Androgen receptor (Homo sapiens, UniProt P10275); assay: Binding affinity to human Androgen receptor
T1 sequence (P10275 whole entry): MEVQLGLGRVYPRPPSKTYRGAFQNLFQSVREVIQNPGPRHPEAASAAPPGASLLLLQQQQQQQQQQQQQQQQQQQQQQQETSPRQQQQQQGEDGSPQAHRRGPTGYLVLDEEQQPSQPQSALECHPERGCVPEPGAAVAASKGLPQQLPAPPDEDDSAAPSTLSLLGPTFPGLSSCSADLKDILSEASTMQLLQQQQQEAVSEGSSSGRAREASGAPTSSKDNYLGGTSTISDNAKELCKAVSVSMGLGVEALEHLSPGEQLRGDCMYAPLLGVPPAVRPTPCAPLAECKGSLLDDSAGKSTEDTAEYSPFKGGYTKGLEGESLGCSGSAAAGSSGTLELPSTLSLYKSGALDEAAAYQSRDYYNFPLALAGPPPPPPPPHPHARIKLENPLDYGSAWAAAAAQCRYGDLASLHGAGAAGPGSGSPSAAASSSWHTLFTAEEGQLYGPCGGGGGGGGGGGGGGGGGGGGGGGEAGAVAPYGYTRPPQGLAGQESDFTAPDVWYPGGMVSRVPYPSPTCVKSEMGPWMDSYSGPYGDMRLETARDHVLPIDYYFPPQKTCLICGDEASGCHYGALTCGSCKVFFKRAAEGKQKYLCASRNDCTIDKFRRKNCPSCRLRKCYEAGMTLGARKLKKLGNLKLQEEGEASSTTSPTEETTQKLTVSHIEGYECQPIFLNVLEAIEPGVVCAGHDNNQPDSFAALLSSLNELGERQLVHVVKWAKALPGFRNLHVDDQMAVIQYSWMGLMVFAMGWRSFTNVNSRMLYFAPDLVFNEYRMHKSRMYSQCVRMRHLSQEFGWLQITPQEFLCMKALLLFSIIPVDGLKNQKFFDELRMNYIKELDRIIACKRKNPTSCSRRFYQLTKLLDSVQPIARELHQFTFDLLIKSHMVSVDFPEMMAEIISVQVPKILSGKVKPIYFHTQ

[2] = In vivo agonist activity at Androgen receptor in castrated male rat assessed as increase in levator ani muscle weight at 0.75 mg/kg, po administered for 14 days; type: functional; details: time 14 day
[3] = In vivo agonist activity at Androgen receptor in castrated male rat assessed as increase in prostate weight at 0.75 mg/kg, po administered for 14 days; type: functional; details: time 14 day
Androgen receptor [4] = target: Androgen receptor (Mus musculus, UniProt P19091); assay: Agonist activity at Androgen receptor (unknown origin) transfected in mouse C2C12 cells measured by luciferase reporter assay; type: cell-based
Sequence of Androgen receptor (Mus musculus, UniProt P19091) (P19091 whole entry): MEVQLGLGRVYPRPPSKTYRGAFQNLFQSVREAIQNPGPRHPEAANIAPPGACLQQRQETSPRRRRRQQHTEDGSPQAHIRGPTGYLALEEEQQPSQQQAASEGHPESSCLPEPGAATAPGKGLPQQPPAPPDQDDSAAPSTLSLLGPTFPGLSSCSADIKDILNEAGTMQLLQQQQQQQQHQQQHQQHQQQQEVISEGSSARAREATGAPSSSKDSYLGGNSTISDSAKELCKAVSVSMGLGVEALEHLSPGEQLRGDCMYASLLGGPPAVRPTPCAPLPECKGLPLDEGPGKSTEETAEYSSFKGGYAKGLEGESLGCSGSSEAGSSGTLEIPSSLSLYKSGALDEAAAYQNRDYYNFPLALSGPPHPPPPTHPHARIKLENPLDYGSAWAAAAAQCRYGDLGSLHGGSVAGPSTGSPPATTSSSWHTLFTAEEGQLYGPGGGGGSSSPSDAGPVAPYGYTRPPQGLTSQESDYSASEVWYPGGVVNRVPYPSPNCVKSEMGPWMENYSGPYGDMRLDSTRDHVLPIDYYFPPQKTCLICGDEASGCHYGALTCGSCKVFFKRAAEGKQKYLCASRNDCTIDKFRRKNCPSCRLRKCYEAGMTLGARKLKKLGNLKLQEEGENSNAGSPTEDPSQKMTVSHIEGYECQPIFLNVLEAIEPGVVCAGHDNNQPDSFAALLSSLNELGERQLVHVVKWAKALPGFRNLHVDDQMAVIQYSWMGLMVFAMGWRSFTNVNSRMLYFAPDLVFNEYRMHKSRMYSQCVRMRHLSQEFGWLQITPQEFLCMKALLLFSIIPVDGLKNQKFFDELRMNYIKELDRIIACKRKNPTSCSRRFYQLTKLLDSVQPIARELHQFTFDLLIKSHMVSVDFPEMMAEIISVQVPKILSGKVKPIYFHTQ

Androgen receptor [5] = target: T1, Androgen receptor; assay: Binding affinity to human Androgen receptor measured by fluorescence polarization assay
[6] = Oral bioavailability in mouse; type: ADME, organism-based; details: in vivo
[7] = target: T2, Protein cereblon/Androgen receptor/Cullin-4A (Homo sapiens, UniProt P10275+Q96SW2+Q13619); assay: Protac activity at CRBN/Cullin 4A/Androgen receptor in human VCaP cells assessed as Androgen receptor degradation; type: cell-based
T2 sequence (Q96SW2 whole entry, one chain of several): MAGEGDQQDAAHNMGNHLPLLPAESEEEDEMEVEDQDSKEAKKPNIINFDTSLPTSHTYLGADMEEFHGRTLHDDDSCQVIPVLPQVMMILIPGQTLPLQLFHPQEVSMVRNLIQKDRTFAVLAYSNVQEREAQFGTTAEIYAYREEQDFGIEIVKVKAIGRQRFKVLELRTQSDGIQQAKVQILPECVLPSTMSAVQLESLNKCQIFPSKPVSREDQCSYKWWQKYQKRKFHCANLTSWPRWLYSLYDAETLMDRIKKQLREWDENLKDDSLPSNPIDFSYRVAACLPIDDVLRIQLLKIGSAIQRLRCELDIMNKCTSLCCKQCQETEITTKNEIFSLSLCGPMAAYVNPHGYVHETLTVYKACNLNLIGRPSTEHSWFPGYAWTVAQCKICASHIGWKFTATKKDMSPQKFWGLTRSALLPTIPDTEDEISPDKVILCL
T2 sequence (Q13619 whole entry, one chain of several): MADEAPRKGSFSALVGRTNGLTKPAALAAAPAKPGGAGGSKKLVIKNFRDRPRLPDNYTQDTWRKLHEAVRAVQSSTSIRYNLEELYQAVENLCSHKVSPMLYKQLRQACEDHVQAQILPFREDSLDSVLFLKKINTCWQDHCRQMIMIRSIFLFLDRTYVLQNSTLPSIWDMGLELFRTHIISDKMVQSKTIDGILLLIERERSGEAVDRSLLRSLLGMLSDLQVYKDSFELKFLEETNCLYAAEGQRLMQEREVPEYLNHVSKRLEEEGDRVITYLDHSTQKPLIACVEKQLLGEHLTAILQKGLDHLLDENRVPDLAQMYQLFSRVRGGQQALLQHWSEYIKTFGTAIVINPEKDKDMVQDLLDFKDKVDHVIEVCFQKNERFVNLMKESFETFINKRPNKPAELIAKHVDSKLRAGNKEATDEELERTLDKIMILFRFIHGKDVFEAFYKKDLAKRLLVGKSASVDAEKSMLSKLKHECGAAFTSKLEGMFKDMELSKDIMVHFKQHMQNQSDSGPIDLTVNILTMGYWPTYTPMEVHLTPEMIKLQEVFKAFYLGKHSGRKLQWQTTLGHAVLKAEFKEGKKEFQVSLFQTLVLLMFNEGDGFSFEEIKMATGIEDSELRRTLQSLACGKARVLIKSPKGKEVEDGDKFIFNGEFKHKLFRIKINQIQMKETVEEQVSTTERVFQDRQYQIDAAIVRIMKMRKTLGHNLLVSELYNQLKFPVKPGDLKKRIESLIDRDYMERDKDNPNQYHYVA

[8] = target: T2, Protein cereblon/Androgen receptor/Cullin-4A; assay: Protac activity at CRBN/Cullin 4A/Androgen receptor in human LNCaP cells assessed as Androgen receptor degradation; type: cell-based
[9] = target: T3, Androgen receptor (Homo sapiens) (UniProt P10275); assay: Induction of degradation of Androgen receptor (unknown origin) at 7.5 uM
T3 sequence (whole entry): T1 sequence (P10275 whole entry)

[10] = test system: Androgen receptor (Homo sapiens), P10275 [UNDEFINED MUTATION]; assay: Induction of degradation of Androgen receptor splice variant 3 (unknown origin) at 7.5 uM
Androgen receptor [11] = target: T1, Androgen receptor; assay: Binding affinity to Androgen receptor (unknown origin); details: read-out: IC50
LNCaP = assay: Antiproliferative activity against human LNCaP cells; type: functional, cell-based
Rattus norvegicus [12] = assay: Anti-androgenic activity in male Wistar rat assessed as decrease in ventral prostate weight at 10 mg/kg, po administered for 15 days; type: functional; design: Activity: scale not given: the % may be the effect or the level left; details: time 15 day
Androgen receptor [13] = target: T1, Androgen receptor; assay: Displacement of [3H]DHT from Androgen receptor expressed in human MDA-MB-453 cells; type: cell-based
Androgen receptor [14] = target: T1, Androgen receptor; assay: Antagonist activity at Androgen receptor in human MDA-MB-453 cells measured by SEAP reporter gene assay; type: cell-based
Androgen receptor [15] = target: T1, Androgen receptor; assay: Antagonist activity at Androgen receptor in human LNCaP cells measured by SEAP reporter gene assay; type: cell-based
Rattus norvegicus [16] = assay: Anti-androgenic activity in testosterone-treated castrated rat assessed as reduction in prostate weight at 2 mg administered orally per day for 5 days; type: functional; design: Activity: scale not given: the % may be the effect or the level left; details: route po, time 5 day; for Activity: at 2 mg
Androgen receptor [17] = target: T1, Androgen receptor; assay: Antagonist activity at Androgen receptor in human MDA-kb2 cells; type: cell-based
[18] = In vivo antagonist activity at Androgen receptor assessed as reduction in wax ester in golden hamster ear model; type: functional, Cricetinae; design: concentration or dose not given beside the values
[19] = target: T3, Androgen receptor (Homo sapiens); assay: Agonist activity at androgen receptor (unknown origin) at 1 uM relative to control; details: filed as agonist
Androgen receptor [20] = target: T1, Androgen receptor; assay: Partial agonist activity at human Androgen receptor
[21] = Antiproliferative activity against refractory human prostate cancer cells; type: functional, cell-based; details: Prostate tumor cell line
[22] = target: GABA-A receptor; anion channel; assay: Binding affinity to GABA A receptor (unknown origin); type: protein-complex assay, Homo sapiens

Compound: Cc1c(N2C3CCC2CC(C)(O)C3)ccc(C#N)c1Cl (centres undefined)
- pIC50 (Androgen receptor [1]): 9.00
- Activity [2]: 68%
- Activity [3]: 21%

Compound: Cc1c(N2C(=O)[C@@H]3[C@H](O)CCN3C2=O)ccc(C#N)c1Cl
- pEC50 (Androgen receptor [4]): 8.64

Compound: Cc1c(N[C@@H](c2ccc(-c3ccc(C#N)cc3)o2)[C@H](C)O)ccc(C#N)c1Cl
- pKi (Androgen receptor [5]): 8.15

Compound: CN(c1ccc(C#N)c(Cl)c1)[C@H]1CC[C@H](NC(=O)c2ccc(N3CCN(C4CN(c5ccc6c(c5)C(=O)N(C5CCC(=O)NC5=O)C6=O)C4)CC3)cc2)CC1 (some centres undefined)
- bioavailability [6]: 51%
- DC50 [7]: < 0.1 nM
- DC50 [8]: < 0.1 nM

Compound: COc1ccc(/C=C/C(=O)/C=C(O)/C=C/c2ccc(OC)c(OC)c2)cc1OC
- Activity [9]: > 80%
- Activity [10]: > 80%

Compound: CC(O)(C[S+]([O-])c1ccc(Cl)c(Cl)c1)c1cc2cc(Cl)c(C(F)(F)F)cc2[nH]1 (centres undefined)
- pIC50 (Androgen receptor [11]): 7.00

Compound: CC(O)(CS(=O)(=O)c1ccc(F)cc1)C(=O)Nc1ccc(C#N)c(C(F)(F)F)c1 (centres undefined) [BICALUTAMIDE]
- pIC50 (LNCaP): 6.80

Compound: C[C@@H]1CN(c2ccc(C#N)c(C(F)(F)F)c2)[C@@H](C)CN1C(=O)Nc1ccc(C(F)(F)F)nc1
- ED50 (Rattus norvegicus [12]; Rattus norvegicus, Wistar, 360 h): 2.2 mg/kg/day
- Activity (Rattus norvegicus [12]; dose 10 mg/kg): 67%

Compound: N#Cc1ccc(N2C(=O)[C@H]3[C@@H]4C[C@@H](CN4C(=O)Oc4ccc(F)cc4)N3C2=O)cc1C(F)(F)F
- pKi (Androgen receptor [13]): 7.74
- pIC50 (Androgen receptor [14]): 6.46
- pIC50 (Androgen receptor [15]): 5.41

Compound: Fc1ccc(Cn2c(CC(F)(F)F)nc3cc(Cl)c(Cl)cc32)cc1
- ID50 (Rattus norvegicus [16]): 0.13 mg/day
- Activity (Rattus norvegicus [16]): 84%

Compound: CO[C@@H]1C(c2ccc(C#N)c(Cl)c2C)=NN2CC[C@H](O)[C@@H]12
- pEC50 (Androgen receptor [4]): 9.30

Compound: C[C@@H]1CC[C@H]([C@@H](O)C(F)(F)F)N1c1ccc2[nH]c(=O)cc(C(F)(F)F)c2c1 [LGD-2941]
- pKi (Androgen receptor [1]): 8.19

Compound: CC(O)(COC(=O)c1ccccc1C(F)(F)F)c1cc2cc([N+](=O)[O-])c(C(F)(F)F)cc2[nH]1 (centres undefined)
- pIC50 (Androgen receptor [11]): 6.85

Compound: CC(c1ccccc1)N(C)c1ccc(C#N)c(C(F)(F)F)n1 (centres undefined)
- pIC50 (Androgen receptor [1]): 7.70
- pIC50 (Androgen receptor [17]): 7.35
- Activity [18]: 83%

Compound: N#Cc1ccc(N2CCC[C@@H]2[C@@H](O)C(F)(F)F)cc1C(F)(F)F [VK5211]
- pKi (Androgen receptor [1]): 9.00

Compound: Cc1c(C(C)(O)C(F)(F)F)[nH]c2cc(C(F)(F)F)c(C#N)cc12 (centres undefined)
- ID50 (Rattus norvegicus [16]): 0.13 mg/day
- Activity (Rattus norvegicus [16]): 80%

Compound: CC1(C)CN(CCC#N)C(=O)[C@@H]1Oc1ccc(C#N)c(Cl)c1
- Activity [19]: 89%

Compound: N#Cc1ccc(N2C(=O)N[C@@](CO)(c3ccccc3)C2=O)cc1C(F)(F)F
- pIC50 (Androgen receptor [20]): 7.89

Compound: COc1cc(N2C(=O)C(C)(C)c3cc(-c4cccnc4OC)ccc32)ccc1C#N
- pIC50 [21]: 7.10

Compound: N#Cc1ccc([C@H]2CCCC[C@H]2O)cc1C(F)(F)F
- pIC50 (Androgen receptor [1]): 7.59
- pIC50 (Androgen receptor [17]): 7.05
- Activity [18]: 85%

Compound: CC(O)(c1nc2cc(Cl)c(Cl)cc2[nH]1)C(F)(F)F (centres undefined)
- ID50 (Rattus norvegicus [16]): 0.32 mg/day
- Activity (Rattus norvegicus [16]): 96%

Compound: N#Cc1ccc(-n2c(=O)n(Cc3ccccc3)c3ccccc32)cc1C(F)(F)F
- pIC50 [21]: 6.77

Compound: C[C@]12COC(=O)C[C@@H]1CC[C@@H]1[C@@H]2CC[C@@]2(C)[C@H]1CC[C@]2(C)O [OXANDROLONE]
- pKi (Androgen receptor [1]): 7.21

Compound: CNC(=O)c1ccc(N2C(=S)N(c3cnc(C#N)c(C(F)(F)F)c3)C(=O)C23CCC3)cc1F [APALUTAMIDE]
- pIC50 [22]: 5.52
